Test results reported in PMC5041982, “Small-molecule inhibition of STAT3 in radioresistant head and neck squamous cell carcinoma” (Oncotarget, 2016).
Like-named read-outs stand apart in the source and are kept apart here.

How the values were obtained:
MB-MDA-468 = MB-MDA-468 in vitro; read-out: Apoptosis EC50; cited from earlier work
UM-SCC-17B xenografts = experiment: UM-SCC-17B tumor xenograft growth in nude mice; format: in vivo; details: IP 5 times a week, 50 mg/kg/day
Description: (§1) Tumor volumes were measured twice weekly.
as §1

UM-SCC-17B cells = experiment: Anchorage dependent growth (MTT); format: cell-based; details: Homo sapiens, 48 hrs
Description: GAPDH-normalized pSTAT3 or pSTAT1 values were divided by that for untreated cells and expressed in percentage. These values were plotted as a function of Log [M] compound, and IC50 values calculated using GraphPad. […] Viable cells quantitated using MTT. Relative % viability was measured by (viability after any treatment ÷ viability of untreated cells × 100) and plotted as a function of Log [M] […] C. […] Representative curves are shown.
Cells were cultured in triplicates in complete DMEM ± drug, in ultra-low attachment 96 well plates for 72 hrs or cell-culture treated plates for 48 hrs and viable cells were quantitated using MTT. Optical density (OD) was measured at 590 nm using a 96-well multi-scanner (EL-800 universal microplate reader, BioTek Inc, VT, USA). Relative % viability (viability after any treatment ÷ viability of untreated cells × 100) was plotted along Y-axis. At least 2 replicates experiments were performed and were used for IC50 calculation using GraphPad software.

pSTAT3 = pSTAT3 (Homo sapiens, UniProt P40763); experiment: pSTAT3 levels in UM-SCC-17B tumor xenografts (immunoblot); details: UM-SCC-17B xenografts, C188 50 mg/kg/day
Description: Tumor tissue was minced, homogenized and first), 50% PEG-400 (added second), 40% Saline (added proteins extracted using high-salt buffer, as described last) then vortexed and sonicated at concentration (10 mg/
C57BL/6 mice were provided in membrane (Millipore, Waltham, MA) and immunoblotted. triplicate, a single dose by body weight via either intra-Membranes were probed with antibody against peritoneal (IP) or oral (PO) route at 10 mg/kg at a volume STAT1 pY701 or STAT3 pY705 total STAT1 or STAT3 of 10 mL/kg and plasma samples collected as shown (Transduction labs, Lexington, KY) and β–actin (Abcam, in the study table below. At the indicated times, 3 mice Cambridge, MA). Membranes were stripped between per time point were euthanized per dose route and then

pSTAT5 = experiment: Phosphoflow, G-CSF-induced pSTAT5 in Kasumi-1 cells; format: cell-based; details: mean, n ≥ 2, read-out: Ligand Induced Phosphorylation (Phosphoflow) pSTAT5 (G-CSF) IC50
Description: (§2) Phosphoflow analysis was done as described in Xu et al. Briefly, Kasumi-1 cells, were serum-starved, pre-treated with compound or DMSO (1 hour, RT) and then stimulated with 20 μl of GCSF (10 ng/ml) for 15 minutes at 37°C. The cells were then permeabilized and stained with Alexa647-pSTAT3, Alexa488-pSTAT5 and PE-pSTAT1 antibodies and analyzed using the BD LSR2. FCS files were exported and uploaded to Cytobank for determination of phosphoproteins as earlier. Gating was done on live, single cells and then gates selected for positive ligand-activated pSTAT3 and pSTAT1. IC50 values were calculated using the GraphPad Prism.

[1] = Maximum tolerated dose in mice; details: mouse, in vivo
pSTAT1 (Tyr-701) [2] = target: T1, pSTAT1 (Tyr-701) (Homo sapiens, UniProt P42224); experiment: Luminex bead-based assay, G-CSF-induced pSTAT1 in Kasumi-1 cells; format: cell-based; details: Figure 2D, Kasumi-1, G-CSF; read-out: Luminex pSTAT1 (Tyr-701) IC50, representative experiment
T1 construct: endogenous in cells; host or cells: Kasumi-1
T1 sequence (P42224 1-750): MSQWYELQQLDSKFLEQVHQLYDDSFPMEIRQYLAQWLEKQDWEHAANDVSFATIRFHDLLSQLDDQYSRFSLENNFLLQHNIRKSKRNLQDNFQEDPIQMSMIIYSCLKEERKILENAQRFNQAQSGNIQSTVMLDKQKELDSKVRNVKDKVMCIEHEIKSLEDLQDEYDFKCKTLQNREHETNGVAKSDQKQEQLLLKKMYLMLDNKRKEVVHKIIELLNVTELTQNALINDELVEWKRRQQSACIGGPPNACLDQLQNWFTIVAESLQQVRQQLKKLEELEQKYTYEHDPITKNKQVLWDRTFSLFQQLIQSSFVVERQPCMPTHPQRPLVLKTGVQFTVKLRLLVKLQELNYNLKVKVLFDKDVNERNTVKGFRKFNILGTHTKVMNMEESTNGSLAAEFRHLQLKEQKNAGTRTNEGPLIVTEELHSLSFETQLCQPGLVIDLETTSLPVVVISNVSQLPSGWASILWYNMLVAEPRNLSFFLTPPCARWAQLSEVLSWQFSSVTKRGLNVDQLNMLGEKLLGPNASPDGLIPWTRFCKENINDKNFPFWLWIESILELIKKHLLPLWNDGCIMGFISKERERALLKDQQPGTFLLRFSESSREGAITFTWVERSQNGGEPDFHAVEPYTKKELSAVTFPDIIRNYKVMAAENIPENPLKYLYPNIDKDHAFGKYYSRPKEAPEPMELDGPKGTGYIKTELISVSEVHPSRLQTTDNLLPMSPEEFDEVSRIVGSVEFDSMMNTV
Description: The equilibrium binding levels obtained ± compound were normalized (resonance obtained in the presence of compound ÷ the resonance obtained in the absence of compound × 100) and plotted against Log [nM] […] B. Inhibition of ligand-stimulated STAT phosphorylation, measured by phosphoflow. Serum-starved (1 hour) Kasumi-1 cells, pre-incubated with compound/DMSO (1 hour), were treated with G-CSF (10 ng/ml, 15 min, left two panels) or IFN-γ (10ng/ml, 15 min, right panel). Cells were permeabilized and stained with Alexa647-pSTAT3, and PE-pSTAT1 antibodies and analyzed on BD LSR2. FCS files were uploaded to Cytobank for pSTAT3 and pSTAT1 quantitation. Histograms depicting pSTAT3 and pSTAT1 levels are shown. C. Mean fluorescence (pSTAT3/1) levels were plotted as function the Log [M] compound, and IC50 calculated using GraphPad. […] D. Inhibition of ligand-stimulated STAT phosphorylation, measured by Luminex. Serum-starved (1 hour) Kasumi-1 cells, pre-incubated with compound/DMSO (0/0.1/0.3/1/3/10/100 μM, 1 hour), were treated with G-CSF (10 ng/ml, 15′). Total protein extracts of cells were assayed for pSTAT3, pSTAT1, and GAPDH levels by Luminex. […] These values were plotted as a function of Log [M] compound, and IC50 values calculated using GraphPad. […]
for analysis as described below. were determined by plotting % maximum response as a 3-D pharmacophore generation function of log concentration of compound and fitting the Each molecular chemical feature, including experimental points to a competitive binding model using hydrogen bond donor, hydrogen bond acceptor, positive a four parameter logistic equation: R = Rhigh − (Rhigh − R low)/ (1 + conc/A1)^A2, where R = percent response at and negative ionizable group, and hydrophobic region, inhibitor concentration, R = percent response with no was generated using the LigandScout application compound, R= percent response at highest compound high framework and projected into 3-D space. concentration, A2 = fitting parameter (slope) and A1 = low Feature-pairing IC50 (BIAevaluation Software version 4.1). […]

pSTAT1 (Tyr-701) [3] = target: T1, pSTAT1 (Tyr-701); experiment: Phosphoflow, IFN-γ-induced pSTAT1 in Kasumi-1 cells; format: cell-based; details: Figure 2C, Kasumi-1; read-out: Phosphoflow pSTAT1 (Tyr-701) IC50, representative experiment
Description: The equilibrium binding levels obtained ± compound were normalized (resonance obtained in the presence of compound ÷ the resonance obtained in the absence of compound × 100) and plotted against Log [nM] […] B. Inhibition of ligand-stimulated STAT phosphorylation, measured by phosphoflow. Serum-starved (1 hour) Kasumi-1 cells, pre-incubated with compound/DMSO (1 hour), were treated with G-CSF (10 ng/ml, 15 min, left two panels) or IFN-γ (10ng/ml, 15 min, right panel). Cells were permeabilized and stained with Alexa647-pSTAT3, and PE-pSTAT1 antibodies and analyzed on BD LSR2. FCS files were uploaded to Cytobank for pSTAT3 and pSTAT1 quantitation. Histograms depicting pSTAT3 and pSTAT1 levels are shown. C. Mean fluorescence (pSTAT3/1) levels were plotted as function the Log [M] compound, and IC50 calculated using GraphPad. […] D. Inhibition of ligand-stimulated STAT phosphorylation, measured by Luminex. Serum-starved (1 hour) Kasumi-1 cells, pre-incubated with compound/DMSO (0/0.1/0.3/1/3/10/100 μM, 1 hour), were treated with G-CSF (10 ng/ml, 15′). Total protein extracts of cells were assayed for pSTAT3, pSTAT1, and GAPDH levels by Luminex. GAPDH-normalized pSTAT3 or pSTAT1 values were divided by this ratio for untreated cells and expressed in percentage. These values were plotted as a function of Log [M] compound, and IC50 values calculated using GraphPad.
as §2

pSTAT3, sequence (P40763 whole entry): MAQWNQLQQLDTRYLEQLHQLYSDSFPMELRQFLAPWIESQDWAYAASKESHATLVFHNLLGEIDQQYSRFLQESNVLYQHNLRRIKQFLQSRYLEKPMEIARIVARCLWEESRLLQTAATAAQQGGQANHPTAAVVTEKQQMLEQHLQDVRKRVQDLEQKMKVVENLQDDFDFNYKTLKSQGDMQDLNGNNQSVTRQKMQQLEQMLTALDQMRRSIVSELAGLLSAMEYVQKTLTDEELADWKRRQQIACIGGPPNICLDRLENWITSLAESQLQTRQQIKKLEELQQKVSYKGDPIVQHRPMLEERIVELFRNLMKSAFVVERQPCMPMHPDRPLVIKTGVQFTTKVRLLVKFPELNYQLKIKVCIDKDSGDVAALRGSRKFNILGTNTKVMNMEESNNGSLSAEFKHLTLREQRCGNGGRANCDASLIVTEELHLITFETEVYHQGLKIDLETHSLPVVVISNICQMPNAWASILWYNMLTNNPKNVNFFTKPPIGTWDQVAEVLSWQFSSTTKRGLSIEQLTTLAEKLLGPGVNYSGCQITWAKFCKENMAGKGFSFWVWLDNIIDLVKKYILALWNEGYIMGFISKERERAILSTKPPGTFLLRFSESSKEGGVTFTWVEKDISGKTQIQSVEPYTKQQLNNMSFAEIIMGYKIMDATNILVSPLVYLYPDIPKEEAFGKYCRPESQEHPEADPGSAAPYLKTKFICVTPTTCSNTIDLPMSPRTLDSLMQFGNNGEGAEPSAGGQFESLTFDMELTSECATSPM

O=C(O)CSc1cc(NS(=O)(=O)c2ccc(C(=O)O)cc2)c2ccccc2c1O [Compound C188]
EC50 (MB-MDA-468): 0.7 µM
Growth of established UM-SCC-17B xenograft tumors (UM-SCC-17B xenografts): continued to grow
IC50 (UM-SCC-17B cells; mean, read-out: Anchorage dependent growth (MTT) IC50): 6.3 ± 0.8 µM
IC50 (UM-SCC-17B cells; Figure 4B, read-out: Anchorage Dependent growth IC50, representative experiment): 5.7 µM
Levels of pSTAT3 in tumors (pSTAT3): not reduced significantly
IC50 (pSTAT5): 40 µM
MTD at 14 days [1]: 100 mg/kg/day
IC50 (pSTAT1 (Tyr-701) [2]): 21.9 µM
IC50 (pSTAT1 (Tyr-701) [3]): 23.4 µM
